From patent US11753407B2, “Compounds for treating spinal muscular atrophy” (PTC Therapeutics, Inc., priority 2012, dated 2023) come the findings set out here.

Each structure is given as a SMILES string. Some results are limits rather than exact numbers.

The test system of data set [1] is Smn protein in SMA patient fibroblast cells (GM03813). Kind of data set: Smn protein assay in cultured cells (SMN HTRF). The following applies: SMA patient fibroblast cells, 48 hours; for maximum fold (Fold) increase of Smn protein: 7-point concentration data, fold relative to vehicle control; for EC1.5x for Smn protein expression: 7-point concentration curve, SMN HTRF, concentration producing 1.5 times Smn protein vs DMSO vehicle control. It is filed as cell-based, human. The essentials: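 Cells were cultured 72 h, seeded at 5,000/well and dosed with seven concentrations (3.16-fold apart) for 48 h. HTRF on lysates, read at 665 and 620 nm, gave blank-corrected ΔF values relative to DMSO. Potency is reported as EC1.5×, efficacy as maximal fold Smn increase.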

Data set [2] relates to SMN2 minigene mRNA (SMN2-A minigene) in HEK293H cells. In words: SMN2 minigene mRNA splicing RT-qPCR assay in cultured cells. The format is cell-based, human. The following applies: Homo sapiens, HEK293-H; concentration increasing full length SMN2 mRNA 1.5-fold relative to vehicle-treated cells; HEK293H cells with SMN2-A minigene, 24 hours, 7-point concentration data; read-out: EC1.5x for production of full length SMN2 mRNA. The essentials: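 EC1.5× values derive from a 24 h treatment of SMN2-A minigene HEK293H cells and GAPDH-normalized RT-qPCR of exon 7-included minigene mRNA relative to vehicle-treated cells.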
Background: In qPCR the cycle at which signal appears reflects the starting amount.

For orientation: melting point means the temperature of the solid-liquid transition.

Take `Cc1nc2ccc(-c3cc(=O)n4cc(C5=CCN(C(C)C)CC5)ccc4n3)cc2s1` [Compound 394, 2-(2-methyl-1,3-benzothiazol-6-yl)-7-[1-(propan-2-yl)-1,2,3,6-tetrahydropyridin-4-yl]-4H-pyrido[1,2-a]pyrimidin-4-one]: the melting point fell in the range of 168 to 170 °C. In addition, in data set [1], the “maximum fold (Fold) increase of Smn protein” value (shortened to “maximum fold (Fold) increase”) was “** (a fold increase between >1.2 and ≤1.35 is indicated by two stars (**))”. Besides, the EC (1.5-fold increase) in data set [2] fell in the range of 0.1 to 0.3 µM.
As to `COc1ccc(-c2cc(=O)n3cc(N4CC[C@H](N(C)C)C4)ccc3n2)cc1OC` [Compound 147, 2-(3,4-dimethoxyphenyl)-7-[(3S)-3-(dimethylamino)pyrrolidin-1-yl]-4H-pyrido[1,2-a]pyrimidin-4-one], the melting point was in the range of 156 to 158 °C. For the same molecule, the “maximum fold (Fold) increase” value in data set [1] was “* (A maximum fold increase of ≤1.2 is indicated by one star (*))”. Also, the EC (1.5-fold increase) in data set [2] fell in the range of 1 to 3 µM.
In turn, `Cc1nc2ccc(-c3cc(=O)n4cc(N5CCCN(C)CC5)ccc4n3)cc2s1` [Compound 254, 2-(2-methyl-1,3-benzothiazol-6-yl)-7-(4-methyl-1,4-diazepan-1-yl)-4H-pyrido[1,2-a]pyrimidin-4-one] gave a melting point of 158 to 160 °C. Also, in data set [1], the “EC1.5x for Smn protein expression” value is “** (an EC1.5× between >1 μM and ≤3 μM is indicated by two stars (**))”; the “maximum fold (Fold) increase” value is “*** (a fold increase between >1.35 and ≤1.5 is indicated by three stars (***))”. For the same molecule, the EC (1.5-fold increase) in data set [2] was 0.1 to 0.3 µM.
Molecule `CCc1cc(-c2cc(=O)n3cc(N4CCNCC4)ccc3n2)cn2cc(C)nc12` [Compound 637, 2-(8-ethyl-2-methylimidazo[1,2-a]pyridin-6-yl)-7-(piperazin-1-yl)-4H-pyrido[1,2-a]pyrimidin-4-one] displayed a melting point of 264 to 271 °C. In addition, in data set [1], the “EC1.5x for Smn protein expression” value was “**** (an EC1.5x≤0.3 μM is indicated by four stars (****))” and the “maximum fold (Fold) increase” value is given as “***** (a fold increase >1.65 is indicated by five stars (*****))”. In addition, in data set [2], the EC (1.5-fold increase) was under 0.1 µM.
Regarding `CCc1cc(N2CCC(N(C)C)CC2)cn2c(=O)cc(-c3ccc(OC)c(OC)c3)nc12` [Compound 345, 2-(3,4-dimethoxyphenyl)-7-[4-(dimethylamino)piperidin-1-yl]-9-ethyl-4H-pyrido[1,2-a]pyrimidin-4-one], the melting point lay within 146 to 150 °C. In data set [1], the “maximum fold (Fold) increase” value was “*** (a fold increase between >1.35 and ≤1.5 is indicated by three stars (***))”. For the same molecule, the EC (1.5-fold increase) in data set [2] was under 0.1 µM.
`Cc1cn2cc(-c3cc(=O)n4cc(N5C[C@@H](C)N[C@@H](C)C5)ccc4n3)ccc2n1` [Compound 117, 7-[(3R,5S)-3,5-dimethylpiperazin-1-yl]-2-(2-methylimidazo[1,2-a]pyridin-6-yl)-4H-pyrido[1,2-a]pyrimidin-4-one]: the melting point lay in the range of 181 to 186 °C. Further, in data set [1], the “EC1.5x for Smn protein expression” value is on record as “**** (an EC1.5x≤0.3 μM is indicated by four stars (****))”; the “maximum fold (Fold) increase” value was “**** (a fold increase between >1.5 and ≤1.65 is indicated by four stars (****))”. For the same molecule, the EC (1.5-fold increase) in data set [2] is under 0.1 µM.
As for `Cc1cn2cc(-c3cc(=O)n4cc(N5CCN(C(C)C)[C@H](C)C5)ccc4n3)cc(Cl)c2n1` [Compound 497, 2-(8-chloro-2-methylimidazo[1,2-a]pyridin-6-yl)-7-[(3R)-3-methyl-4-(propan-2-yl)piperazin-1-yl]-4H-pyrido[1,2-a]pyrimidin-4-one], the melting point was in the range of 278 to 281 °C. Besides, in data set [1], the “EC1.5x for Smn protein expression” value is “*** (an EC1.5× between >0.3 μM and ≤1 μM is indicated by three stars (***))”; the “maximum fold (Fold) increase” value was “**** (a fold increase between >1.5 and ≤1.65 is indicated by four stars (****))”. The EC (1.5-fold increase) in data set [2] is under 0.1 µM.
In turn, `Cc1cc2cc(-c3cc(=O)n4cc(N5CCN(CCO)CC5)ccc4n3)oc2c(C)n1` [Compound 529, 2-(5,7-dimethylfuro[2,3-c]pyridin-2-yl)-7-[4-(2-hydroxyethyl)piperazin-1-yl]-4H-pyrido[1,2-a]pyrimidin-4-one] gave a melting point of 256 to 258 °C. In data set [1], the “EC1.5x for Smn protein expression” value is “*** (an EC1.5× between >0.3 μM and ≤1 μM is indicated by three stars (***))”; the “maximum fold (Fold) increase” value is given as “***** (a fold increase >1.65 is indicated by five stars (*****))”. Moreover, the EC (1.5-fold increase) in data set [2] was under 0.1 µM.
Molecule `Cc1nc2ccc(-c3cc(=O)n4cc(N5CCNCC5)ccc4n3)cc2o1` [Compound 133, 2-(2-methyl-1,3-benzoxazol-6-yl)-7-(piperazin-1-yl)-4H-pyrido[1,2-a]pyrimidin-4-one] returned a melting point of 219 to 222 °C. For the same molecule, in data set [1], the “EC1.5x for Smn protein expression” value is on record as “**** (an EC1.5x≤0.3 μM is indicated by four stars (****))”; the “maximum fold (Fold) increase” value is “**** (a fold increase between >1.5 and ≤1.65 is indicated by four stars (****))”. Besides, the EC (1.5-fold increase) in data set [2] was under 0.1 µM.
As to `CCc1cc(N2CCN3CCC[C@@H]3C2)cn2c(=O)cc(-c3ccc(OC)c(OC)c3)nc12` [Compound 455, 2-(3,4-dimethoxyphenyl)-9-ethyl-7-[(8aR)-hexahydropyrrolo[1,2-a]pyrazin-2(1H)-yl]-4H-pyrido[1,2-a]pyrimidin-4-one], the melting point was in the range of 180 to 184 °C. For the same molecule, in data set [1], the “maximum fold (Fold) increase” value is “** (a fold increase between >1.2 and ≤1.35 is indicated by two stars (**))”. The EC (1.5-fold increase) in data set [2] was 0.1 to 0.3 µM.
The molecule `Cc1nc2ccc(-c3cc(=O)n4cc(N5CCN6CCC[C@H]6C5)ccc4n3)cc2s1` [Compound 255, 7-[(8aS)-hexahydropyrrolo[1,2-a]pyrazin-2(1H)-yl]-2-(2-methyl-1,3-benzothiazol-6-yl)-4H-pyrido[1,2-a]pyrimidin-4-one] yielded a melting point of 250 to 260 °C. In addition, the “maximum fold (Fold) increase” value in data set [1] was “** (a fold increase between >1.2 and ≤1.35 is indicated by two stars (**))”. In addition, the EC (1.5-fold increase) in data set [2] lay within 0.3 to 1 µM.
Molecule `Cc1cn2cc(-c3ccc4nc(C5=CCNCC5)cc(=O)n4c3)ccc2n1` [Compound 375, 7-(2-methylimidazo[1,2-a]pyridin-6-yl)-2-(1,2,3,6-tetrahydropyridin-4-yl)-4H-pyrido[1,2-a]pyrimidin-4-one] yielded a melting point of 197 to 201 °C. Besides, in data set [1], the “EC1.5x for Smn protein expression” value is “**** (an EC1.5x≤0.3 μM is indicated by four stars (****))”; the “maximum fold (Fold) increase” value is “**** (a fold increase between >1.5 and ≤1.65 is indicated by four stars (****))”. In addition, in data set [2], the EC (1.5-fold increase) was under 0.1 µM.
On to `CNCC1CCN(c2ccc3nc(-c4ccc(OC)c(F)c4)cc(=O)n3c2)CC1` [Compound 223, 2-(3-fluoro-4-methoxyphenyl)-7-{4-[(methylamino)methyl]piperidin-1-yl}-4H-pyrido[1,2-a]pyrimidin-4-one], for which the melting point was 163 to 170 °C. Moreover, the “maximum fold (Fold) increase” value in data set [1] was “*** (a fold increase between >1.35 and ≤1.5 is indicated by three stars (***))”. In addition, the EC (1.5-fold increase) in data set [2] is 0.3 to 1 µM.
